Assay results: US9896418B2, “Aryl ethers and uses thereof” (Peloton Therapeutics, Inc., priority 2013, dated 2018)

System: HIF-2α HIS TAG-PASB Domain
Assay: HIF-2α Scintillation Proximity Assay (SPA)
Assay type: binding
Experimental: The percent inhibition was determined and IC50 values were calculated using the Dotmatics system based on the following equation: % inhibition=[(high control−sample)/(high control−low control)]×100.

| IC50 [nM] | Compound |
| --- | --- |
| 26 | O=Cc1c(S(=O)(=O)C(F)(F)F)ccc(Oc2cc(F)cc(Cl)c2)c1Br [Compound 101, 2-Bromo-3-(3-chloro-5-fluorophenoxy)-6-((trifluoromethyl)sulfonyl)benzaldehyde] |
| 120 | O=S(=O)(c1ccc(Oc2cc(F)cc(Cl)c2)c(Br)c1CO)C(F)(F)F [Compound 102, (2-Bromo-3-(3-chloro-5-fluorophenoxy)-6-((trifluoromethyl)sulfonyl)phenyl)methanol] |
| 300 | CC(O)c1c(S(=O)(=O)C(F)(F)F)ccc(Oc2cc(F)cc(Cl)c2)c1Br (stereo not drawn) [Compound 103, 1-(2-Bromo-3-(3-chloro-5-fluorophenoxy)-6-((trifluoromethyl)sulfonyl)phenyl)ethan-1-ol] |
| 270 | CC(=O)c1c(S(=O)(=O)C(F)(F)F)ccc(Oc2cc(F)cc(Cl)c2)c1Br [Compound 104, 1-(2-Bromo-3-(3-chloro-5-fluorophenoxy)-6-((trifluoromethyl)sulfonyl)phenyl)ethan-1-one] |
| 12000 | N#Cc1c(Oc2cc(F)cc(Cl)c2)ccc(S(=O)(=O)C(F)(F)F)c1C(=O)O [Compound 105, 3-(3-Chloro-5-fluorophenoxy)-2-cyano-6-((trifluoromethyl)sulfonyl)benzoic acid] |
| 1000 | CC(=NO)c1c(S(=O)(=O)C(F)(F)F)ccc(Oc2cc(F)cc(Cl)c2)c1Br [Compound 106, 1-(2-Bromo-3-(3-chloro-5-fluorophenoxy)-6-((trifluoromethyl)sulfonyl)phenyl)ethan-1-one oxime] |
| 160 | O=S(=O)(c1ccc(Oc2cc(F)cc(Cl)c2)c(Br)c1C=NO)C(F)(F)F [Compound 107, 2-Bromo-3-(3-chloro-5-fluorophenoxy)-6-((trifluoromethyl)sulfonyl)benzaldehyde oxime] |
| 5800 | O=S(=O)(c1ccc(Oc2cc(F)cc(Cl)c2)c(Br)c1CNCCO)C(F)(F)F [Compound 108, 2-((2-Bromo-3-(3-chloro-5-fluorophenoxy)-6-((trifluoromethyl)sulfonyl)benzyl)amino)ethan-1-ol] |
| 2100 | CNCc1c(S(=O)(=O)C(F)(F)F)ccc(Oc2cc(F)cc(Cl)c2)c1Br [Compound 109, 1-(2-Bromo-3-(3-chloro-5-fluorophenoxy)-6-((trifluoromethyl)sulfonyl)phenyl)-N-methylmethanamine] |
| 1600 | O=S(=O)(c1ccc(Oc2cc(F)cc(Cl)c2)c(Br)c1CNCc1ccccc1)C(F)(F)F [Compound 110, N-Benzyl-1-(2-bromo-3-(3-chloro-5-fluorophenoxy)-6-((trifluoromethyl)sulfonyl)phenyl)methanamine] |
| 15 | N#Cc1c(S(=O)(=O)C(F)(F)F)ccc(Oc2cc(F)cc(Cl)c2)c1Cl [Compound 111, 2-Chloro-3-(3-chloro-5-fluorophenoxy)-6-((trifluoromethyl)sulfonyl)benzonitrile] |
| 40 | O=Cc1c(S(=O)(=O)C(F)(F)F)ccc(Oc2cc(F)cc(Cl)c2)c1Cl [Compound 112, 2-Chloro-3-(3-chloro-5-fluorophenoxy)-6-((trifluoromethyl)sulfonyl)benzaldehyde] |
| 2300 | CNCc1c(S(=O)(=O)C(F)(F)F)ccc(Oc2cc(F)cc(Cl)c2)c1Cl [Compound 113, 1-(2-Chloro-3-(3-chloro-5-fluorophenoxy)-6-((trifluoromethyl)sulfonyl)phenyl)-N-methylmethanamine] |
| 1100 | O=S(=O)(c1ccc(Oc2cc(F)cc(Cl)c2)c(Cl)c1CNCCF)C(F)(F)F [Compound 114, N-(2-Chloro-3-(3-chloro-5-fluorophenoxy)-6-((trifluoromethyl)sulfonyl)benzyl)-2-fluoroethan-1-amine] |
| 210 | N#Cc1cccc(Oc2ccc(S(=O)(=O)C(F)(F)F)cc2Br)c1 [Compound 117, 3-(2-Bromo-4-((trifluoromethyl)sulfonyl)phenoxy)benzonitrile] |
| 160 | N#Cc1cc(F)cc(Oc2ccc(S(=O)(=O)C(F)(F)F)cc2Br)c1 [Compound 118, 3-(2-Bromo-4-((trifluoromethyl)sulfonyl)phenoxy)-5-fluorobenzonitrile] |
| 340 | N#Cc1cc(F)cc(Oc2ccc(S(=O)(=O)C(F)(F)F)cc2C#N)c1 [Compound 120, 2-(3-Cyano-5-fluorophenoxy)-5-((trifluoromethyl)sulfonyl)benzonitrile] |
| 2800 | O=S(=O)(c1ccc(Oc2cc(F)cc(Cl)c2)c(CCO)c1)C(F)(F)F [Compound 127, 2-[2-(3-Chloro-5-fluoro-phenoxy)-5-(trifluoromethylsulfonyl)phenyl]ethanol] |
| 2200 | O=S(=O)(c1cc(C(F)(F)F)ccc1Oc1cc(F)cc(Cl)c1)C(F)(F)F [Compound 129, 1-(3-Chloro-5-fluorophenoxy)-4-(trifluoromethyl)-2-((trifluoromethyl)sulfonyl)benzene] |

Second part, the compound before the results:

| Compound | IC50 [nM] |
| --- | --- |
| N#Cc1cc(F)cc(Oc2ccc(S(=O)(=O)C(F)F)c(C#N)c2Br)c1 [Compound 77, 2-Bromo-3-(3-cyano-5-fluorophenoxy)-6-((difluoromethyl)sulfonyl)benzonitrile] | 1900 |
| CC(=O)c1c(S(=O)(=O)C(F)(F)F)ccc(Oc2cc(F)cc(C#N)c2)c1C#N [Compound 79, 2-Acetyl-6-(3-cyano-5-fluorophenoxy)-3-((trifluoromethyl)sulfonyl)benzonitrile] | 1300 |
| N#Cc1cc(F)cc(Oc2ccc(S(=O)(=O)C(F)F)c(CO)c2Br)c1 [Compound 80, 3-(2-Bromo-4-((difluoromethyl)sulfonyl)-3-(hydroxymethyl)phenoxy)-5-fluorobenzonitrile] | 22 |
| N#Cc1cccc(Oc2ccc(S(=O)(=O)C(F)F)c(CO)c2Br)c1 [Compound 81, 3-(2-Bromo-4-((difluoromethyl)sulfonyl)-3-(hydroxymethyl)phenoxy)benzonitrile] | 290 |
| COC(=O)c1c([S+]([O-])C(F)F)ccc(Oc2cc(F)cc(Cl)c2)c1Br (stereo not drawn) [Compound 82, Methyl 2-bromo-3-(3-chloro-5-fluorophenoxy)-6-((difluoromethyl)sulfinyl)benzoate] | 15000 |
| CC(C)(C)OC(=O)NCc1c(S(=O)(=O)C(F)F)ccc(Oc2cc(F)cc(Cl)c2)c1Br [Compound 83, tert-butyl (2-bromo-3-(3-chloro-5-fluorophenoxy)-6-((difluoromethyl)sulfonyl)benzyl)carbamate] | 3200 |
| NCc1c(S(=O)(=O)C(F)F)ccc(Oc2cc(F)cc(Cl)c2)c1Br [Compound 85, (2-Bromo-3-(3-chloro-5-fluorophenoxy)-6-((difluoromethyl)sulfonyl)phenyl)methanamine] | 2900 |
| CC(=O)NCc1c(S(=O)(=O)C(F)F)ccc(Oc2cc(F)cc(Cl)c2)c1Br [Compound 86, N-(2-Bromo-3-(3-chloro-5-fluorophenoxy)-6-((difluoromethyl)sulfonyl)benzyl)acetamide] | 71000 |
| O=S(=O)(c1ccc(Oc2cccc(C(F)(F)F)c2)c(Br)c1CO)C(F)F [Compound 89, (2-Bromo-6-((difluoromethyl)sulfonyl)-3-(3-(trifluoromethyl)phenoxy)phenyl)methanol] | 1400 |
| CS(=O)(=O)c1ccc(Oc2cc(F)cc(Cl)c2)c2c1C(O)CC2 (stereo not drawn) [Compound 90, 4-(3-Chloro-5-fluorophenoxy)-7-(methylsulfonyl)-2,3-dihydro-1H-inden-1-ol] | 230 |
| CCS(=O)(=O)c1ccc(Oc2cc(F)cc(Cl)c2)c2c1C(O)CC2 (stereo not drawn) [Compound 91, 4-(3-Chloro-5-fluorophenoxy)-7-(ethylsulfonyl)-2,3-dihydro-1H-inden-1-ol] | 280 |
| CS(=O)(=O)c1ccc(Oc2cc(F)cc(Cl)c2)c(C(F)F)c1C#N [Compound 92, 3-(3-Chloro-5-fluorophenoxy)-2-(difluoromethyl)-6-(methylsulfonyl)benzonitrile] | 37 |
| CS(=O)(=O)c1ccc(Oc2cc(F)cc(F)c2)c(C(F)F)c1C#N [Compound 93, 2-(Difluoromethyl)-3-(3,5-difluorophenoxy)-6-(methylsulfonyl)benzonitrile] | 170 |
| CS(=O)(=O)c1ccc(Oc2cc(F)cc(C#N)c2)c(C(F)F)c1C#N [Compound 94, 3-(3-Cyano-5-fluorophenoxy)-2-(difluoromethyl)-6-(methylsulfonyl)benzonitrile] | 130 |
| CS(=O)(=O)c1ccc(Oc2cc(F)cc(C#N)c2)c2c1C(O)CCC2 (stereo not drawn) [Compound 95, 3-Fluoro-5-((5-hydroxy-4-(methylsulfonyl)-5,6,7,8-tetrahydronaphthalen-1-yl)oxy)benzonitrile] | 3600 |
| N#Cc1c(I)ccc(Oc2cc(F)cc(Cl)c2)c1Br [Compound 96, 2-Bromo-3-(3-chloro-5-fluorophenoxy)-6-iodobenzonitrile] | 3100 |
| Fc1cc(Cl)cc(Oc2ccc(C(F)(F)F)c(Cl)c2Br)c1 [Compound 97, 2-Bromo-3-chloro-1-(3-chloro-5-fluorophenoxy)-4-(trifluoromethyl)benzene] | 2200 |
| N#Cc1c(S(=O)(=O)C(F)(F)F)ccc(Oc2cc(F)cc(Cl)c2)c1Br [Compound 98, 2-Bromo-3-(3-chloro-5-fluorophenoxy)-6-((trifluoromethyl)sulfonyl)benzonitrile] | 15 |
| N#Cc1cc(F)cc(Oc2ccc(S(=O)(=O)C(F)(F)F)c(C#N)c2Br)c1 [Compound 100, 2-Bromo-3-(3-cyano-5-fluorophenoxy)-6-((trifluoromethyl)sulfonyl)benzonitrile] | 94 |
| COC(=O)c1cc(S(=O)(=O)C(F)(F)F)ccc1Oc1cc(F)cc(Cl)c1 [Compound 121, Methyl 2-(3-chloro-5-fluorophenoxy)-5-((trifluoromethyl)sulfonyl)benzoate] | 16000 |
| O=S(=O)(c1ccc(Oc2cc(F)cc(Cl)c2)c(CO)c1)C(F)(F)F [Compound 122, (2-(3-Chloro-5-fluorophenoxy)-5-((trifluoromethyl)sulfonyl)phenyl)methanol] | 1700 |
| O=Cc1cc(S(=O)(=O)C(F)(F)F)ccc1Oc1cc(F)cc(Cl)c1 [Compound 123, 2-(3-Chloro-5-fluorophenoxy)-5-((trifluoromethyl)sulfonyl)benzaldehyde] | 32 |
| NC(=O)c1cc(S(=O)(=O)C(F)(F)F)ccc1Oc1cc(F)cc(Cl)c1 [Compound 125, 2-(3-Chloro-5-fluorophenoxy)-5-((trifluoromethyl)sulfonyl)benzamide] | 8000 |
